Key:
[1] = Inhibition of HCV NS3 protease by FRET assay; parameters: species or system Hepacivirus hominis
Hepatitis C virus = assay: Antiviral activity against Hepatitis C virus infected human hepatoma cells by replicon assay; assay type: functional, organism-based, Hepacivirus hominis
[2] = Cytotoxicity against human hepatoma cells; assay type: cell-based

Ki [1] [nM]	Compound	also measured
310	COc1ccc2c(O[C@@H]3C[C@@H](C(=O)Nc4ccccc4C(=O)NS(=O)(=O)c4ccc(C(F)(F)F)cc4)N(C(=O)[C@@H](NC(=O)OC(C)(C)C)C(C)(C)C)C3)cc(-c3ccccc3)nc2c1	
780	COc1ccc2c(O[C@@H]3C[C@@H](C(=O)Nc4cccc(C(=O)NS(=O)(=O)c5ccccc5)c4)N(C(=O)[C@@H](NC(=O)OC(C)(C)C)C(C)(C)C)C3)cc(-c3ccccc3)nc2c1	
350	COc1ccc2c(O[C@@H]3C[C@@H](C(=O)Nc4cc(C(F)(F)F)ccc4C(=O)NS(=O)(=O)c4ccccc4)N(C(=O)[C@@H](NC(=O)OC(C)(C)C)C(C)(C)C)C3)cc(-c3ccccc3)nc2c1	EC50 (Hepatitis C virus): 5200 nM; CC50 [2]: 28000 nM
2000	COc1ccc2c(O[C@@H]3C[C@@H](C(=O)Nc4ccccc4C(=O)NS(=O)(=O)C4CC4)N(C(=O)[C@@H](NC(=O)OC(C)(C)C)C(C)(C)C)C3)cc(-c3ccccc3)nc2c1	
1200	COc1ccc(S(=O)(=O)NC(=O)c2ccccc2NC(=O)[C@@H]2C[C@@H](Oc3cc(-c4ccccc4)nc4cc(OC)ccc34)CN2C(=O)[C@@H](NC(=O)OC(C)(C)C)C(C)(C)C)cc1	
830	COc1ccc2c(O[C@@H]3C[C@@H](C(=O)Nc4ccccc4C(=O)NS(=O)(=O)c4ccccc4)N(C(=O)[C@@H](NC(=O)OC(C)(C)C)C(C)(C)C)C3)cc(-c3ccccc3)nc2c1	
5900	COc1ccc2c(O[C@@H]3C[C@@H](C(=O)Nc4ccccc4C(=O)NS(C)(=O)=O)N(C(=O)[C@@H](NC(=O)OC(C)(C)C)C(C)(C)C)C3)cc(-c3ccccc3)nc2c1	
3900	COc1ccc2c(O[C@@H]3C[C@@H](C(=O)Nc4ccccc4Br)N(C(=O)[C@@H](NC(=O)OC(C)(C)C)C(C)(C)C)C3)cc(-c3ccccc3)nc2c1	
17000	COc1ccc2c(O[C@@H]3C[C@@H](C(=O)Nc4ccccc4CC(=O)O)N(C(=O)[C@@H](NC(=O)OC(C)(C)C)C(C)(C)C)C3)cc(-c3ccccc3)nc2c1	
1100	COc1ccc2c(O[C@@H]3C[C@@H](C(=O)Nc4ccc(C(=O)NS(=O)(=O)c5ccccc5)cc4)N(C(=O)[C@@H](NC(=O)OC(C)(C)C)C(C)(C)C)C3)cc(-c3ccccc3)nc2c1	
3200	COc1ccc2c(O[C@@H]3C[C@@H](C(=O)Nc4c(C)cccc4C(=O)NS(=O)(=O)c4ccccc4)N(C(=O)[C@@H](NC(=O)OC(C)(C)C)C(C)(C)C)C3)cc(-c3ccccc3)nc2c1	
610	COc1ccc2c(O[C@@H]3C[C@@H](C(=O)Nc4ccccc4C(=O)NS(=O)(=O)Cc4ccccc4)N(C(=O)[C@@H](NC(=O)OC(C)(C)C)C(C)(C)C)C3)cc(-c3ccccc3)nc2c1	
920	COc1ccc2c(O[C@@H]3C[C@@H](C(=O)Nc4ccccc4C(=O)NS(=O)(=O)c4cccs4)N(C(=O)[C@@H](NC(=O)OC(C)(C)C)C(C)(C)C)C3)cc(-c3ccccc3)nc2c1	
5000	COc1ccc2c(O[C@@H]3C[C@@H](C(=O)Nc4ccccc4C(=O)O)N(C(=O)[C@@H](NC(=O)OC(C)(C)C)C(C)(C)C)C3)cc(-c3ccccc3)nc2c1	

Continued, compound first:

Compound	Ki [1] [nM]	also measured
COc1ccc2c(O[C@@H]3C[C@@H](C(=O)Nc4ccc(Br)cc4)N(C(=O)[C@@H](NC(=O)OC(C)(C)C)C(C)(C)C)C3)cc(-c3ccccc3)nc2c1	1800	
COc1ccc2c(O[C@@H]3C[C@@H](C(=O)Nc4ccc(C(=O)O)cc4)N(C(=O)[C@@H](NC(=O)OC(C)(C)C)C(C)(C)C)C3)cc(-c3ccccc3)nc2c1	12000	
COc1ccc2c(O[C@@H]3C[C@@H](C(=O)Nc4cccc(C(=O)O)c4)N(C(=O)[C@@H](NC(=O)OC(C)(C)C)C(C)(C)C)C3)cc(-c3ccccc3)nc2c1	6800	
COc1ccc2c(O[C@@H]3C[C@@H](C(=O)Nc4cccc(Br)c4)N(C(=O)[C@@H](NC(=O)OC(C)(C)C)C(C)(C)C)C3)cc(-c3ccccc3)nc2c1	1400	
CC(C)(C)NC(=O)N[C@H](C(=O)N1C[C@H]2[C@@H]([C@H]1C(=O)NC(CC1CCC1)C(=O)C(N)=O)C2(C)C)C(C)(C)C (stereo partly drawn) [BOCEPREVIR]	14	
COc1ccc2c(O[C@@H]3C[C@H]4C(=O)N[C@]5(C(=O)O)C[C@H]5/C=C\CCCCC[C@H](NC(=O)OC5CCCC5)C(=O)N4C3)cc(-c3csc(NC(C)C)n3)nc2c1 [CILUPREVIR]	0.66	EC50 (Hepatitis C virus): 3 nM
COc1ccc2c(O[C@@H]3C[C@@H](C(=O)O)N(C(=O)[C@@H](NC(=O)OC(C)(C)C)C(C)(C)C)C3)cc(-c3ccccc3)nc2c1 [CORBOXYLIC ACID]	66000	
CC(C)(C)OC(=O)N[C@H]1CCCCC/C=C\[C@@H]2C[C@@]2(C(=O)NS(=O)(=O)C2CC2)NC(=O)[C@@H]2C[C@@H](OC(=O)N3Cc4cccc(F)c4C3)CN2C1=O [DANOPREVIR]		EC50 (Hepatitis C virus): 2.1 nM; IC50 [1]: < 0.25 nM
CCC[C@H](NC(=O)[C@@H]1[C@H]2CCC[C@H]2CN1C(=O)[C@@H](NC(=O)[C@@H](NC(=O)c1cnccn1)C1CCCCC1)C(C)(C)C)C(=O)C(=O)NC1CC1 [TELAPREVIR]	39	EC50 (Hepatitis C virus): 310 nM

Source: ChEMBL document CHEMBL1143948, “Hepatitis C virus NS3 protease inhibitors comprising a novel aromatic P1 moiety” (Bioorg Med Chem, 2008)
